Key:
[1] = target: ctRAGE (Homo sapiens (Human), UniProt Q15109); experiment: Fluorescence binding assay (native tryptophan fluorescence titration); design: key to Fluorescent Binding Assay, Kd (nM): ***: No binding; conditions: 10 nM ctRAGE, pH 7.0, 5% DMSO; for Kd: read-out: Fluorescent Binding Assay, Kd
Procedure: Native tryptophan fluorescence experiments were conducted using a Horiba Jobin Yvon Fluorolog spectrofluorometer. 1 mM of compound was dissolved in 10 mM phosphate buffer [pH 7.0] and 50% DMSO. ctRAGE was bacterially expressed and purified as described^1. 10 nM ctRAGE solution was individually titrated from 0.1 nM-100 μM with the compounds in 100 μL of 10 mM phosphate buffer [pH 7.0] and 5% DMSO. The excitation and emission wavelengths were 280 nm and 352 nm, respectively. Dissociation constants, Kd, were estimated from the changes in peak fluorescence intensities as a function of the free compound concentration by using Prism 5 software (GraphPad). Data were fit to the equation, (F−F0)/Fmax=[compound]/(Kd+[compound]) where F is the fluorescence intensity at a given compound concentration, F0 is the fluorescence intensity of the blank, and Fmax is the maximum fluorescence intensity.

[2] = tested on: Murine vascular smooth muscle cells (SMCs); experiment: Smooth muscle cell migration assay (wounding assay), RAGE ligand CML-AGE; assay type: cell-based; design: key to SMC migration Assay, IC50 (nM): ****: No inhibition or bad fit or inhibition out of range; conditions: CML-AGE 10 μg/ml, 7 h; for IC50: Mus musculus, read-out: SMC migration Assay, IC50
Procedure: FIG. 4 depicts effects of compounds on RAGE ligand-stimulated migration of murine aortic smooth muscle cells (SMCs). Migration of SMCs after incubation with the indicated RAGE inhibitor compounds or the parent molecule (“C12”) quinolone from the Chem-Bridge library was assessed. SMCs were grown to confluence and serum-starved overnight. The following morning, serum free media was removed and compounds were added (1 μM). Immediately following the addition of compounds, the monolayer was wounded using a p200 pipette tip and allowed to incubate for 1.5 h. Following this incubation, compounds were removed and fresh media containing RAGE ligand, CML-AGE (10 μg/ml), was added for 7 h. All images were measured at TO and T7 h and an area ingrowth of effective migrating cells was calculated. Each compound was tested in three independent wells and each well was photographed in 3 separate locations for a total of 9 images used in assessing area ingrowth. Error bars represent SEM. * indicates p<0.05 comparing CML-AGE vs. CML-AGE and compound treatment and # indicates p<0.001 comparing CML-AGE vs. serum free medium (SFM) vehicle. Note that SFM is the vehicle into which the RAGE ligand, CML-AGE, is added for testing the effect of RAGE ligand.
Murine vascular smooth muscle cells (SMCs) were cultured from the aortas of 10-week old male mice using a modification of the procedure of Travo and Barret^17. SMCs were cultured following an explant protocol in accordance with institutional guidelines. Wild-type murine aortic vascular SMCs were isolated and used between passages 8 to 12. Migration in response to the RAGE ligand CML-AGE (CML, 10 μg/ml) or a general effector, not a RAGE ligand, PDGF-BB, 10 ng/ml (R&D systems, Minneapolis, Minn., USA) was assessed with a wounding assay. Cells were grown to confluence in 12-well plates and starved overnight. The following morning, serum free media was removed and compounds were added. Immediately following the addition of compounds, the monolayer was wounded using a p200 pipette tip and the compounds were allowed to incubate for 1.5 h. Following this incubation, all compounds were removed and fresh media containing RAGE ligand or general effector, PDGF-BB, was added for 7 h. Cells were maintained at 37° C. and 5% CO2. Images were obtained at TO and T7. Each image was measured and an area ingrowth of effective migrating cells was calculated. The SMC migration assay data for representative compounds, Compounds 229 and 247, is depicted in FIGS. 5a and 5b, respectively.

Chain of ctRAGE (Q15109 364-404): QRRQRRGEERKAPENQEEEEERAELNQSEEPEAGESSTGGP

Kd [1] | IC50 [2] | Fluorescent Binding Assay, Kd (nM) [1] | SMC migration Assay, IC50 (nM) [2] | Structure (SMILES)
34 nM | 4 nM |  |  | CC(=O)Nc1ccc(-c2cc(CN3CCOCC3)c3ccccc3n2)cc1F [Compound 214, N-(2-fluoro-4-(4-(morpholinomethyl)quinolin-2-yl)phenyl)acetamide]
27 nM | 460 nM |  |  | CC(=O)Nc1ccc(-c2cc(CN3CCOCC3)c3ccccc3n2)cc1Cl [Compound 215, N-(2-chloro-4-(4-(morpholinomethyl)quinolin-2-yl)phenyl)acetamide]
 |  | *** | **** | COc1cc(-c2cc(CN3CCOCC3)c3ccccc3n2)ccc1NC(C)=O [Compound 216, N-(2-methoxy-4-(4-(morpholinomethyl)quinolin-2-yl)phenyl)acetamide]
 |  | *** | **** | CC(=O)Nc1ccc(-c2cc(CN3CCOCC3)c3ccccc3n2)cc1O [Compound 217, N-(2-hydroxy-4-(4-(morpholinomethyl)quinolin-2-yl)phenyl)acetamide]
80 nM | 133 nM |  |  | CC(=O)Nc1ccc(-c2cc(CN3CCOCC3)c3ccccc3n2)cc1C#N [Compound 218, N-(2-cyano-4-(4-(morpholinomethyl)quinolin-2-yl)phenyl)acetamide]
89 nM |  |  | **** | O=C(CO)Nc1ccc(-c2cc(CN3CCOCC3)c3ccccc3n2)cc1 [Compound 219, 2-hydroxy-N-(4-(4-(morpholinomethyl)quinolin-2-yl)phenyl)acetamide]
22 nM | 300 nM |  |  | COCC(=O)Nc1ccc(-c2cc(CN3CCOCC3)c3ccccc3n2)cc1 [Compound 220, 2-methoxy-N-(4-(4-(morpholinomethyl)quinolin-2-yl)phenyl)acetamide]
34 nM | 5000 nM |  |  | NCC(=O)Nc1ccc(-c2cc(CN3CCOCC3)c3ccccc3n2)cc1 [Compound 221, 2-amino-N-(4-(4-(morpholinomethyl)quinolin-2-yl)phenyl)acetamide]
32 nM | 3200 nM |  |  | CC(=O)NCC(=O)Nc1ccc(-c2cc(CN3CCOCC3)c3ccccc3n2)cc1 [Compound 222, 2-acetamido-N-(4-(4-(morpholinomethyl)quinolin-2-yl)phenyl)acetamide]
72 nM |  |  |  | CCC(=O)Nc1ccc(-c2cc(CN3CCOCC3)c3ccccc3n2)cc1 [Compound 223, N-(4-(4-(morpholinomethyl)quinolin-2-yl)phenyl)propionamide]
32 nM | 99 nM |  |  | CC(C)C(=O)Nc1ccc(-c2cc(CN3CCOCC3)c3ccccc3n2)cc1 [Compound 224, N-(4-(4-(morpholinomethyl)quinolin-2-yl)phenyl)isobutyramide]
122 nM | 44 nM |  |  | CC(=O)Nc1ccc(-c2cc(CN3CCOCC3)c3ccc(F)cc3n2)cc1 [Compound 225, N-(4-(7-fluoro-4-(morpholinomethyl)quinolin-2-yl)phenyl)acetamide]
25 nM | 3 nM |  |  | CC(=O)Nc1ccc(-c2cc(CN3CCOCC3)c3ccc(Cl)cc3n2)cc1 [Compound 226, N-(4-(7-chloro-4-(morpholinomethyl)quinolin-2-yl)phenyl)acetamide]
10 nM |  |  | **** | CC(=O)Nc1ccc(-c2cc(CN3CCOCC3)c3ccc(C)cc3n2)cc1 [Compound 227, N-(4-(7-methyl-4-(morpholinomethyl)quinolin-2-yl)phenyl)acetamide]
122 nM | 10 nM |  |  | COc1ccc2c(CN3CCOCC3)cc(-c3ccc(NC(C)=O)cc3)nc2c1 [Compound 228, N-(4-(7-methoxy-4-(morpholinomethyl)quinolin-2-yl)phenyl)acetamide]
3 nM | 0.2 nM |  |  | CC(=O)Nc1ccc(-c2cc(CN3CCOCC3)c3ccc(C#N)cc3n2)cc1 [Compound 229, N-(4-(7-cyano-4-(morpholinomethyl)quinolin-2-yl)phenyl)acetamide]

Kd [1] | IC50 [2] | Fluorescent Binding Assay, Kd (nM) [1] | SMC migration Assay, IC50 (nM) [2] | Structure (SMILES)
 |  | *** | **** | CC(=O)Nc1ccc(-c2cc(CN3CCOCC3)c3ccc(C(N)=O)cc3n2)cc1 [Compound 230, 2-(4-acetamidophenyl)-4-(morpholinomethyl)quinoline-7-carboxamide]
47 nM | 18 nM |  |  | CC(=O)Nc1ccc(-c2cc(CNCCO)c3ccccc3n2)cc1 [Compound 231, N-(4-(4-(((2-hydroxyethyl)amino)methyl)quinolin-2-yl)phenyl)acetamide]
 |  | *** | **** | CC(=O)Nc1ccc(-c2cc(CN(C)CCO)c3ccccc3n2)cc1 [Compound 232, N-(4-(4-(((2-hydroxyethyl)(methyl)amino)methyl)quinolin-2-yl)phenyl)acetamide]
 |  |  | **** | COCCNCc1cc(-c2ccc(NC(C)=O)cc2)nc2ccccc12 [Compound 233, N-(4-(4-(((2-methoxyethyl)amino)methyl)quinolin-2-yl)phenyl)acetamide]
12 nM | 0.4 nM |  |  | COCCN(C)Cc1cc(-c2ccc(NC(C)=O)cc2)nc2ccccc12 [Compound 234, N-(4-(4-(((2-methoxyethyl)(methyl)amino)methyl)quinolin-2-yl)phenyl)acetamide]
76 nM | 17 nM |  |  | CCCNCc1cc(-c2ccc(NC(C)=O)cc2)nc2ccccc12 [Compound 235, N-(4-(4-((propylamino)methyl)quinolin-2-yl)phenyl)acetamide]
56 nM | 0.1 nM |  |  | CCCN(C)Cc1cc(-c2ccc(NC(C)=O)cc2)nc2ccccc12 [Compound 236, N-(4-(4-((methyl(propyl)amino)methyl)quinolin-2-yl)phenyl)acetamide]
 |  | *** | **** | CCCCNCc1cc(-c2ccc(NC(C)=O)cc2)nc2ccccc12 [Compound 237, N-(4-(4-((butylamino)methyl)quinolin-2-yl)phenyl)acetamide]
16 nM | 0.08 nM |  |  | CCCCN(C)Cc1cc(-c2ccc(NC(C)=O)cc2)nc2ccccc12 [Compound 238, N-(4-(4-((butyl(methyl)amino)methyl)quinolin-2-yl)phenyl)acetamide]
 | 1500 nM |  |  | COc1ccc2c(CN3CCOCC3)cc(-c3ccc(NC(C)=O)c(Cl)c3)nc2c1 [Compound 257, N-(2-chloro-4-(7-methoxy-4-(morpholinomethyl)quinolin-2-yl)phenyl)acetamide]
 | 323 nM |  |  | COc1ccc2c(CN3CCOCC3)cc(-c3ccc(NC(C)=O)c(C#N)c3)nc2c1 [Compound 258, N-(2-cyano-4-(7-methoxy-4-(morpholinomethyl)quinolin-2-yl)phenyl)acetamide]
 |  |  | **** | CC(=O)Nc1ccc(-c2cc(CN3CCOCC3)c3ccc(C#N)cc3n2)cc1F [Compound 259, N-(4-(7-cyano-4-(morpholinomethyl)quinolin-2-yl)-2-fluorophenyl)acetamide]
 | 14 nM |  |  | CC(=O)Nc1ccc(-c2cc(CN3CCOCC3)c3ccc(C#N)cc3n2)cc1Cl [Compound 260, N-(2-chloro-4-(7-cyano-4-(morpholinomethyl)quinolin-2-yl)phenyl)acetamide]
 | 1400 nM |  |  | CC(=O)Nc1ccc(-c2cc(CN3CCOCC3)c3ccc(C#N)cc3n2)cc1C#N [Compound 261, N-(2-cyano-4-(7-cyano-4-(morpholinomethyl)quinolin-2-yl)phenyl)acetamide]
 | 2900 nM |  |  | CCOc1ccc2c(CN3CCOCC3)cc(-c3ccc(NC(C)=O)c(F)c3)nc2c1 [Compound 262, N-(4-(7-ethoxy-4-(morpholinomethyl)quinolin-2-yl)-2-fluorophenyl)acetamide]
